Data on four compounds can be found in patent US12637499B2, “Adrenomedullin analog, method for producing the same, and pharmaceutical use thereof” (priority 2020, dated 2026).

One series can be described thus: in vitro. Particulars: for stability in reaction mixture with human serum: Experiment VIII, 10^−7 M, 37° C., 4 hours after the beginning of reaction. The protocol: The stabilities of the AM analog peptides in serum were evaluated with the same procedure as in Experiment I except the following procedure. […] A reaction mixture containing 4 μL of phosphate buffer, 20 μL of human serum (Sigma-Aldrich Co. LLC, USA), and 14 μL of water was prepared. To the reaction mixture, 2 μL of AM or an AM analog peptide (2×10^−6 M, final concentration: 10^−7 M) was added, and reaction was initiated at 37° C. The reaction was terminated by addition of 160 μL of ELISA buffer to the reaction mixture 0, 1, or 4 hours after the beginning of reaction. […] In the figure, the abscissa represents reaction time (hr), and the ordinate represents concentration in serum of AM or an AM analog (%) represented as relative values to concentration of AM or an AM analog at the beginning of reaction (i.e., 0 hours after the beginning of reaction).

The target in series [1] is T1, AM type 1 receptor (AMI receptor) (Homo sapiens, UniProt O60895+Q16602).
T1 construct: expressed in transfected cells; medium contains hygromycin B and Geneticin
The experiment in a line: Intracellular cAMP production in HEK293 cells stably expressing AM type 1 receptor (Experiments V and IX). Particulars: for intracellular cAMP concentration-increasing activity: Experiment IX, addition at 10^−9 M or 10^−8 M, HEK293 cells. Format: cell-based. The source says: The adrenomedullin activity exerted by AM, shown above with examples, will be exerted via increased concentration of intracellular cAMP in normal cases. Thus, the increased concentration of intracellular cAMP can be considered as an index of the adrenomedullin activity of the compound according to the aspect. In each aspect of the invention, the effect of increasing concentration of intracellular cAMP can be evaluated, for example, by adding a target compound to a cultured cell line (HEK293 cell line) caused to stably express an AM type 1 receptor (AMI receptor) and measuring the amount of intracellular cAMP produced.
The physiological effect of AM is known to be exerted via increase in the concentration of intracellular cAMP (see Kitamura K et al., Biochem Biophys Res Commun, 30 Apr. 1993, Volume 192, Issue 2, pp. 553-560). Accordingly, each AM analog was added to a cultured cell line (HEK293 cell line) caused to stably express an AM type 1 receptor (AMI receptor), and the amount of intracellular cAMP produced was measured. HEK293 cells were cultured in Dulbecco's modified Eagle's medium (with 10% fetal bovine serum, 100 U/ml penicillin G, […] streptomycin, 0.25 mg/ml amphotericin B, […] hygromycin B, and […] Geneticin) in a fibronectin-coated 24-well plate (Thermo Fisher Scientific) (under 37° C., humidified, 5% CO2 conditions). After culturing for 3 days, 90%-confluent cells with accumulation of intracellular cAMP stimulated were subjected to experiment. The medium was exchanged with Hanks's balanced salt solution containing 20 mM 4-(2-hydroxyethyl)-1-piperazineethanesulfonic acid and 0.1% bovine serum albumin, AM or an AM analog was added to the cells in the presence of 0.5 mM isobutylmethylxanthine (IBMX), and the cells were incubated at 37° C. for 15 minutes. The reaction was terminated by addition of cell lysis buffer. Then, the amount of intracellular cAMP produced in the HEK293 cells of each well was measured using an ELISA kit for cAMP measurement (GE Healthcare Japan Corp., #RPN2251). […] In the figure, the abscissa represents logarithms of concentration of AM or an AM analog added (M), and the ordinate represents amounts of intracellular cAMP produced in HEK293 cells stably expressing an AMI receptor (fmol/well).
In the figure, the abscissa represents logarithms of concentration of AM or an AM analog added (M), and the ordinate represents amounts of intracellular cAMP produced in HEK293 cells stably expressing an AMI receptor (fmol/ml).
On the technique in general: Changes in cAMP serve as a functional read-out for many G protein-coupled receptors.

The nature of a further series: in vivo. The note with it: for detection in rat plasma after subcutaneous administration: 50 nmol/kg subcutaneous, Experiment X; for Cmax: male, Wistar, rat, in vivo, sc, 50 nmol/kg. Here is the method:
Seven-week-old male Wistar rats were prepared, and grown with normal feeds. To determine plasma AM concentrations, 50 nmol/kg of AM or an AM analog was subcutaneously administered. A peripheral blood sample was collected from the tail vein into a Kantan tube® (containing heparin Na, Eiken Chemical Co., Ltd., Tochigi, Japan) at predetermined times (0, 15, 30, 60, and 120 minutes after administration). The tube was centrifuged at 2,000×g. Plasma was collected from the tube, and transferred into a test tube (containing 21 μg of aprotinin and 0.3 mg of EDTA-2Na) and stored. […] In the figure, the abscissa represents elapsed time after subcutaneous administration (hr), and the ordinate represents concentration in plasma of AM or an AM analog (pM). In addition, maximum concentrations in blood (Cmax) of AM or the AM analogs in rat plasma after subcutaneous administration were calculated.

Where a SMILES comes first, the peptide text is derived from it. Bridges are numbered along the chain shown (N, C = ends).

T1 sequence (Q16602 23-461): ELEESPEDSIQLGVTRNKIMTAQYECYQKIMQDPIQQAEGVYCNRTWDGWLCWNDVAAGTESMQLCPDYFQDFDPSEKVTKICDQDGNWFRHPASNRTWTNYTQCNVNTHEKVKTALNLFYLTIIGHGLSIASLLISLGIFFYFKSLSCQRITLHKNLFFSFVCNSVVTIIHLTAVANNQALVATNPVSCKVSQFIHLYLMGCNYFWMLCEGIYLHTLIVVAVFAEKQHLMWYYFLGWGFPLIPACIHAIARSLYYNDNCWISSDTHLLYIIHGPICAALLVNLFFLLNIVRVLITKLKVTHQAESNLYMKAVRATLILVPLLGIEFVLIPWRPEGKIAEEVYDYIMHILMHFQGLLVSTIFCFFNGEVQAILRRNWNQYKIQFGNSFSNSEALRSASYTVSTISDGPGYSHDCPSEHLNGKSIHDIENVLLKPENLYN
T1 sequence (O60895 43-175): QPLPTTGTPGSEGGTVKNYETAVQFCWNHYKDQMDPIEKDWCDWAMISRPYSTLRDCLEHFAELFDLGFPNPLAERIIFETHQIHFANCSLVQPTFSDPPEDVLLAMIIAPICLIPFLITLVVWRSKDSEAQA

The compound `CC[C@H](C)[C@H](NC(=O)[C@H](CCC(N)=O)NC(=O)[C@H](Cc1c[nH]cn1)NC(=O)[C@H](C)NC(=O)[C@H](CC(C)C)NC(=O)[C@H](CCCCN)NC(=O)[C@H](CCC(N)=O)NC(=O)[C@@H](NC(=O)[C@@H](NC(=O)[C@@H]1CSSC[C@H](NC(=O)CNC(=O)[C@H](Cc2ccccc2)NC(=O)[C@@H](N)CO)C(=O)N[C@@H](CCCNC(=N)N)C(=O)N[C@@H](Cc2ccccc2)C(=O)NCC(=O)N[C@@H]([C@@H](C)O)C(=O)N1)[C@@H](C)O)C(C)C)C(=O)N[C@@H](Cc1ccc(O)cc1)C(=O)N[C@@H](CCC(N)=O)C(=O)N[C@@H](Cc1ccccc1)C(=O)N[C@H](C(=O)N[C@@H](CC(=O)O)C(=O)N[C@@H](CCCCN)C(=O)N[C@@H](CC(=O)O)C(=O)N[C@@H](CCCCN)C(=O)N[C@@H](CC(=O)O)C(=O)N[C@@H](CC(N)=O)C(=O)N[C@H](C(=O)N[C@@H](C)C(=O)N1CCC[C@H]1C(=O)N[C@@H](CCCNC(=N)N)C(=O)N1CCC[C@H]1C(=O)N[C@@H](CCCCN)C(=O)N[C@H](C(=O)N[C@@H](CO)C(=O)N1CCC[C@H]1C(=O)N[C@@H](CCC(N)=O)C(=O)NCC(=O)N[C@@H](Cc1ccc(O)cc1)C(N)=O)[C@@H](C)CC)C(C)C)[C@@H](C)O` [[Pro-45]hAM(13-52), SFGCRFGTCTVQKLAHQIYQFTDKDKDNVAPRPKISPQGY-CONH2] (H-SFGCRFGTCTVQKLAHQIYQFTDKDKDNVAPRPKISPQGY-NH2; disulfide 4-9) displayed a fraction remaining at 4 h in “in vitro” (human, serum) of around 60%.
As to `CC[C@H](C)[C@H](NC(=O)[C@H](CCC(N)=O)NC(=O)[C@H](Cc1c[nH]cn1)NC(=O)[C@H](C)NC(=O)[C@H](CC(C)C)NC(=O)[C@H](CCCCN)NC(=O)[C@H](CCC(N)=O)NC(=O)[C@@H](NC(=O)[C@@H](NC(=O)[C@@H]1CSSC[C@H](NC(=O)CNC(=O)[C@H](Cc2ccccc2)NC(=O)[C@@H](N)CO)C(=O)N[C@@H](CCCNC(=N)N)C(=O)N[C@@H](Cc2ccccc2)C(=O)NCC(=O)N[C@@H]([C@@H](C)O)C(=O)N1)[C@@H](C)O)C(C)C)C(=O)N[C@@H](Cc1ccc(O)cc1)C(=O)N[C@@H](CCC(N)=O)C(=O)N[C@@H](Cc1ccccc1)C(=O)N[C@H](C(=O)N[C@@H](CC(=O)O)C(=O)N[C@@H](CCCCN)C(=O)N[C@@H](CC(=O)O)C(=O)N[C@@H](CCCCN)C(=O)N[C@@H](CC(=O)O)C(=O)N[C@@H](CC(N)=O)C(=O)N[C@H](C(=O)N[C@@H](C)C(=O)N1CCC[C@H]1C(=O)N[C@@H](CC(=O)O)C(=O)N[C@@H](CO)C(=O)N[C@@H](CCCCN)C(=O)N[C@H](C(=O)N[C@@H](CO)C(=O)N1CCC[C@H]1C(=O)N[C@@H](CCC(N)=O)C(=O)NCC(=O)N[C@@H](Cc1ccc(O)cc1)C(N)=O)[C@@H](C)CC)C(C)C)[C@@H](C)O` [[Asp-44]hAM(13-52), SFGCRFGTCTVQKLAHQIYQFTDKDKDNVAPDSKISPQGY-CONH2] (H-SFGCRFGTCTVQKLAHQIYQFTDKDKDNVAPDSKISPQGY-NH2; disulfide 4-9), the “stability in reaction mixture with human serum” value in “in vitro” is “stable”.
As for `CC[C@H](C)[C@H](NC(=O)[C@H](CCC(N)=O)NC(=O)[C@H](Cc1c[nH]cn1)NC(=O)[C@H](C)NC(=O)[C@H](CC(C)C)NC(=O)[C@H](CCCCN)NC(=O)[C@H](CCC(N)=O)NC(=O)[C@@H](NC(=O)[C@@H](NC(=O)[C@@H]1CSSC[C@H](NC(=O)CNC(=O)[C@H](Cc2ccccc2)NC(=O)[C@@H](N)CO)C(=O)N[C@@H](CCCNC(=N)N)C(=O)N[C@@H](Cc2ccccc2)C(=O)NCC(=O)N[C@@H]([C@@H](C)O)C(=O)N1)[C@@H](C)O)C(C)C)C(=O)N[C@@H](Cc1ccc(O)cc1)C(=O)N[C@@H](CCC(N)=O)C(=O)N[C@@H](Cc1ccccc1)C(=O)N[C@H](C(=O)N[C@@H](CC(=O)O)C(=O)N[C@@H](CCCCN)C(=O)N[C@@H](CC(=O)O)C(=O)N[C@@H](CCCCN)C(=O)N[C@@H](CC(=O)O)C(=O)N[C@@H](CC(N)=O)C(=O)N[C@H](C(=O)N[C@@H](C)C(=O)N1CCC[C@H]1C(=O)N[C@@H](Cc1ccccc1)C(=O)N[C@@H](CO)C(=O)N[C@@H](CCCCN)C(=O)N[C@H](C(=O)N[C@@H](CO)C(=O)N1CCC[C@H]1C(=O)N[C@@H](CCC(N)=O)C(=O)NCC(=O)N[C@@H](Cc1ccc(O)cc1)C(N)=O)[C@@H](C)CC)C(C)C)[C@@H](C)O` [[Phe-44]hAM(13-52), SFGCRFGTCTVQKLAHQIYQFTDKDKDNVAPFSKISPQGY-CONH2] (H-SFGCRFGTCTVQKLAHQIYQFTDKDKDNVAPFSKISPQGY-NH2; disulfide 4-9), in series [1], the EC50 is 5.13 nM and the “intracellular cAMP concentration-increasing activity” value was “approximately equivalent to that of hAM(1-52) or hAM(13-52)”. In addition, in the series “in vitro”, the “stability in reaction mixture with human serum” value is on record as “stable”. For the same compound, in the series “in vivo”, the “detection in rat plasma after subcutaneous administration” value is “detected in rat plasma 15 minutes after administration” and the concentration peaked (Cmax) at 0.323 nM.
On the same counts, the results for `CC[C@H](C)[C@H](NC(=O)[C@H](CCC(N)=O)NC(=O)[C@H](Cc1c[nH]cn1)NC(=O)[C@H](C)NC(=O)[C@H](CC(C)C)NC(=O)[C@H](CCCCN)NC(=O)[C@H](CCC(N)=O)NC(=O)[C@@H](NC(=O)[C@@H](NC(=O)[C@@H]1CSSC[C@H](NC(=O)CNC(=O)[C@H](Cc2ccccc2)NC(=O)[C@@H](N)CO)C(=O)N[C@@H](CCCNC(=N)N)C(=O)N[C@@H](Cc2ccccc2)C(=O)NCC(=O)N[C@@H]([C@@H](C)O)C(=O)N1)[C@@H](C)O)C(C)C)C(=O)N[C@@H](Cc1ccc(O)cc1)C(=O)N[C@@H](CCC(N)=O)C(=O)N[C@@H](Cc1ccccc1)C(=O)N[C@H](C(=O)N[C@@H](CC(=O)O)C(=O)N[C@@H](CCCCN)C(=O)N[C@@H](CC(=O)O)C(=O)N[C@@H](CCCCN)C(=O)N[C@@H](CC(=O)O)C(=O)N[C@@H](CC(N)=O)C(=O)N[C@H](C(=O)N[C@@H](C)C(=O)N1CCC[C@H]1C(=O)NCC(=O)N[C@@H](CO)C(=O)N[C@@H](CCCCN)C(=O)N[C@H](C(=O)N[C@@H](CO)C(=O)N1CCC[C@H]1C(=O)N[C@@H](CCC(N)=O)C(=O)NCC(=O)N[C@@H](Cc1ccc(O)cc1)C(N)=O)[C@@H](C)CC)C(C)C)[C@@H](C)O` [[Gly-44]hAM(13-52), SFGCRFGTCTVQKLAHQIYQFTDKDKDNVAPGSKISPQGY-CONH2] (H-SFGCRFGTCTVQKLAHQIYQFTDKDKDNVAPGSKISPQGY-NH2; disulfide 4-9) are 11 nM, “approximately equivalent to that of hAM(1-52) or hAM(13-52)”, “stable”, “detected in rat plasma 15 minutes after administration” and 0.76 nM.

Usually share remaining stands for the share of the starting amount still present when the sample was taken. A high value points to greater stability. One may read the EC50 as the concentration giving half of the maximal effect. Low readings indicate a more potent agent, high ones a less potent agent. As a reminder, the Cmax is the highest concentration seen after dosing.
